According to article PMC5870190, “A three-in-one-bullet for oesophageal cancer: replication fork collapse, spindle attachment failure and enhanced radiosensitivity generated by a ruthenium(II) metallo-intercalator” (Chemical Science, 2017):

Key:
[1] = system: OE21 cells; assay: DNA fibre assay (replication fork progression); type: cell-based, human; conditions: Ru1 21 μM or dppz 7 μM during second (IdU) pulse, 30 min
Description: DNA fibre assay. The DNA fibre assay was performed as described previously.5 Briefly, OE21 cells were labelled with 30 µM CldU for 30 mins and then 250 µM IdU for an additional 30 mins. Either Ru1 (21 µM) or dppz (7 µM) was added during the second (IdU) nucleotide step (30 mins). DNA replication was terminated using ice-cold PBS and cells lysed (200 mM Tris-HCl pH 7.4, 50 mM EDTA and 0.5% SDS). DNA fibres were spread onto glass slides, fixed with methanol:acetic acid (3:1) and denatured with 2.5 M HCl. After blocking with 2% BSA, fibres were stained with anti-rat and anti-mouse 5-bromo-2′- deoxyuridine (BrdU) that specifically recognise either CldU (Abcam, dilution 1:500) or IdU (BD Sciences, 1:100). Anti-rat Cy3 (Jackson Immuno Research, 1:300) and anti-mouse Alexa-488 (Molecular Probes, 1:300) were used as the respective secondary antibodies. CldU- and IdU-labelled tracts were visualised using a Leica DMRB microscope with a DFC360FX camera and tract length measured by ImageJ software. Statistical analysis was performed by GraphPad Prism software using an unpaired t-test.
Western blotting. Treated samples were washed with cold PBS and lysed in RIPA (radioimmunoprecipitation assay) buffer containing protease inhibitors (10 μg/mL leupeptin, 2 μg/mL pepstatin, 50 μg/mL antipain, 2 μg/mL aprotinin, 20 μg/mL chyprostatin, 2 μg/mL benzamidine, 1 mM phenylmethanesulfonyl fluoride) and phosphatase inhibitors (50 mM NaF, 1 mM […]
Bis-Tris gels and LDS-PAGE. Gels were transferred onto nitrocellulose membrane and probed with primary antibodies in 5% BSA (bovine serum albumin) solutions at the following dilutions: 1/1000 dilution for majority of Cell Signaling antibodies and γH2AX. 1/500 for anti-p-ATR and anti-cleaved caspase 3. 1/200 anti-Chk1. 1/5000-1/10,000 anti- α-tubulin or β-actin.
Reactions were visualised with a suitable secondary antibody conjugated with horseradish peroxidase (1/5000 dilution, Thermo). […]

[2] = system: OE21 cells; assay: Apoptosis (AnnexinV staining, karyorrhexis, cleaved caspase 3); type: cell-based, human; conditions: OE21, 21 μM, 24 h
Description: (§1) phototoxic contribution to bio-activity. Doxorubicin (Sigma) was prepared in doubly-distilled water (10 mg/mL, 17.4 mM).
(§2) [Ru(phen)2(dppz)]2+ (2 mM) was prepared in doubly-distilled water.
(§3) Sub-cellular fractionation. OE21 or OE33 cells were treated in 12 well plates, washed with cold PBS (2x2 mls) and nuclear and cytosol fractions obtained using the Nuclei EZ Lysis kit (Sigma). Briefly, cells were washed with acidified PBS (pH 2.5) to remove the membrane-bound fraction and 0.4 ml EZ lysis buffer was added. Cells were detached by scraping, collected into eppendorfs, vortexed briefly and left for 5 minutes on ice. Samples were centrifuged (500g, 5 mins) and the supernatant (cytosol fraction) aspirated. The pellet (nuclear fraction) was re-suspended in 200 µl RIPA buffer. […] Ruthenium content was determined by ICP-MS analysis as described in a recent […]
(§4) DNA fibre assay. […] CldU- and IdU-labelled tracts were visualised using a Leica DMRB microscope with a DFC360FX camera and tract length measured by ImageJ software. […]
(§5) Western blotting. […] Protein content was determined by BCA assay. […]
(§6) AnnexinV staining. […] This was incubated for 15 mins at room temperature, 400 µl binding buffer added and analysed by flow cytometry (FL1 and FL3 channels for FITC and PI respectively). […]

[3] = system: OE21 cells; assay: Cell-cycle analysis by flow cytometry; type: cell-based, human; conditions: OE21, 20 μM, 24 h
Description: as §1, §2, §3, §4, §5, §6

[4] = system: hSAEC1-KT normal human small airway epithelial cells; assay: MTT assay, hSAEC1-KT cells; type: cell-based
Description: MTT assay. OE21, FLO-1 or hSAEC1-KT cells were seeded in 96 well plates at 20,000 cells/well (for 24 h treatment) or 10,000 cells/well (for 72 h treatment) and allowed to adhere for 24 h before treatment. OE33 cells were seeded in 48 well plates at 40,000 cells/well (24 h treatment) or 20,000 cells/well (72 h treatment). Cancer cell lines were treated with chemicals dissolved in RPMI media for consistency. After incubation, 0.5 mg/ml MTT (thiazolyl blue tetrazolium bromide) dissolved in serum-free medium was added for 60 minutes and the formazan product eluted using acidified isopropanol.
The absorbance at 540 nm was quantified by plate reader (reference wavelength 650 nm). The metabolic activity of the cell population was determined as a percentage of a negative (solvent) control. […]
For the determination of mutation induction, from the untreated and each treated condition, 2x10^5 cells were plated in 10 x 100 mm dishes in selective media (regular media

For [Ru(phen)2(tpphz)]^2+ [Ru1], the “increase in completely stalled/terminated replication forks (CldU tract only) compared to mock-treated” value [1] was 1.7 fold, the apoptosis [2] was “low levels of apoptosis” and the “increase in G2/M phase cells compared to control” value [3] was “two-fold”. It also gave an IC50 ([4]; 24 h constant exposure) of 78.5 ± 1.3 µM and an IC50 ([4]; 72 h constant exposure) of 22 ± 2 µM.
